Test system: OB3b expressing sMMO
Experiment: Packed bed reactor with cyclopropane inhibitor
Format: cell-based, Methylosinus trichosporium (OB3b)
Protocol: A Packed Bed Reactor was used to evaluate the conversion of methane to methanol by cell of OB3b expressing sMMO. […] Cyclopropanol is expected to be produced via oxidation of cyclopropane by MMO in this example.
A continuous flow PBR was constructed using a glass HPLC column with the dimensions 2.5 cm ID and 13 cm packing height. Methane, oxygen, and the inhibitor feed solutions dissolved in media were contained within the two 100 mL syringes. The column was packed with alginate beads with sMMO-expressing OB3b formed in-situ under aseptic conditions Immobilized culture performance was evaluated in the PBR over a range of flow rates to achieve reactor residence times (τ) ranging from 0.2, 0.3, 0.5, and 8.5 hours. Two separate experiments were carried out, one for methane transformation (conversion) without the cyclopropane inhibitor and the other with the inhibitor (FIG. 26). For the methane utilization studies, the influent solution was developed by adding 7 mL methane and 21 mL oxygen to the 100 ml syringes. For the inhibition studies 1 ml of cyclopropane was added. After equilibration for 20 minutes, the gases were ejected from the syringes, and the syringes connected to the column inlet.
An integrated form of the Monod equation was used to analyze the results from the PBR experiment. It relates substrate conversion across a packed bed reactor, X, to the residence time, τ (min), and initial substrate concentration So (mg/L).
The solids lines in FIG. 26 were computed with the integrated Monod model using the Ks and kmax obtained from the batch data. The simulation used an effectiveness factor (η) of 1 indicating no loss in cell activity. Good fit was obtained between the simple analytical solution, equation above, and the experimental observations for the uninhibited case. The maximum conversion was 95±0.8% at a τ of 8 hours. For the cyclopropane inhibition embodiment, the same kmax as non-inhibited case was used, but with a Ks four times the uninhibited case to investigate the plausibility of competitive inhibition.

C1CC1 [CP, cyclopropane]
effect on methane transformation (cyclopropane-amended column vs uninhibited): Inhibition of methane transformation was observed | Methane conversion (residence time 4 hours): 68±11% | methanol production selectivity (percentage of methane converted to methanol) (residence time 4 hours): 102±39% | Methane conversion (residence time 8 hours): 95±1% | methanol production selectivity (percentage of methane converted to methanol) (residence time 8 hours): 91±32%

Source: patent US20180258381A1, “BIO-LAMINA BIOREACTORS AND METHODS OF MAKING AND USING THE SAME” (Oregon State University, priority 2015, published 2018)
